How the values were obtained:
Format in all cases: in vivo
[1] = system: male mice of SHK line; assay: Novel Object Recognition test, Scopolamine-disturbed recognition; conditions: 0.05 mg/kg and 0.2 mg/kg intraperitoneally 30 minutes before training; Scopolamine 1 mg/kg
Protocol: The test was carried out in aged male mice of SHK line. Plexiglass plus maze, consisted of 4 dead-end chambers (numbered 1, 2, 3, 4), joined together through the fifth central chamber, was used in experiments. Mouse was placed into central chamber and allowed to explore the maze. Floor was cleaned after each animal. The sequence of chamber entries and duration of visits were registered by observer. Test was ended after 13 entries into dead-end chambers. Criterion for entry was location of all animal's paws inside the chamber at the same time.
During the training an animal was placed in the maze with one equiform bowl in each side chamber. In the course of testing (one hour after training) two opposite standing bowls were replaced by identical flasks, and animal was allowed to explore the maze. The time spent by animal in each side chamber was registered during the periods of training and testing. Index of novel object recognition was calculated as ratio of time spent by animal in side chambers with novel objects to the total time spent by it in all side chambers. In comparison with the training phase the appearance of novel object extends the time spent by animal in the chamber with novel object (so-called effect of novel object recognition). The recognition of novel objects was disturbed under action of Scopolamine administered in 1 mg/kg dose intraperitoneally 30 minutes before training, and recognition index was decreased.

[2] = system: male mice of BALB/c line; assay: Mice Behavior in the Elevated Plus Maze test; conditions: 0.05 mg/kg and 0.2 mg/kg intraperitoneally
Protocol: The experiments were carried out in aged male mice of BALB/c line weighing about 25 g. Animals were housed 5-7 per cage with water and food available. None of animals was acquainted with experimental set-up before. Each experimental group included 8 animals.
The procedure used was described earlier by Lister (Lister R. G. The use of a plus-maze to measure anxiety in the mouse. Psychopharmacology, 1987; 92:180-185). Plexiglass set-up consisted of two opened arms of 30×5 cm size and two closed arms of 30×5×15 cm size was used. Side arms were closed with transparent plexiglass and were connected with central zone via platform of 5×5 cm size. Opened arms, central platform and floor were made of black plexiglass. The set-up was mounted on a metallic base which was placed 38.5 cm above floor level.
Animals were injected intraperitoneally with placebo, Buspirone (5 mg/kg, 30 minutes before training), Lorazepam (0.05 mg/kg, 60 minutes before training) or with one of the compounds of the general formula 1, for example, compound 1.1.1(4).HCl or compound 1.2.1(3).HCl in doses 0.05 mg/kg and 0.2 mg/kg. Buspirone and Lorazepam were introduced in maximal effective dose, at which side sedative effect and general decrease of exploratory activity (number of arm entries during the test) were not observed yet.
Each mouse was placed in maze center with its head towards the opened arm. Over a period of 5 minutes the sequence and duration of arm entries were registered by means of computer program. Criterion for entry is location of all animal's paws inside the arm at the same time. Index of preference was calculated as ratio of the time spent by animal in opened arms as well as the number of entries into opened arms to the total time spent by it in opened and closed arms or, respectively, to the whole number of entries to arms of both types. The number of defecations left by mouse was regarded as additional parameter characterizing anxiety state.

[3] = system: mice; assay: Mice Training in the Morris Water maze, Scopolamine memory impairment; conditions: intraperitoneally 35-40 minutes before training, with Scopolamine
Protocol: Mice Training in the Morris Water maze. A round pool filled with water at 20-22° C. was used. There was a round ceramic platform of 14 cm height in the pool. Animals's (mice) behavior was registered with an automated computer video system in combination with software package of movement analysis Any-maze (Stoelting Co., CIIIA). Selection of mice suitable for training was carried out before the experiments. For this purpose the platform was placed 1 cm above the water level and an animal was put on the platform for 20 seconds. Then the mouse was sunk into the water on the opposite side of the pool, allowed to find the platform and climb it for 60 seconds, where it was left for 20 seconds. After that the mouse was repeatedly immersed into water on the opposite side of the pool and allowed to find the platform. If it failed in finding the platform within 60 seconds the experimentator helped it to find the platform and climb it. If the mice couldn't find the platform itself in two consecutive attempts it was excluded from the experiment. During the next two days the platform was placed 0.5 cm lower the water level. Every day the mice were given four attempts for finding the platform within 60 seconds. The time interval between the attempts was 20 seconds, during which the mice stayed on the platform. Every day before the first attempt the mice was placed on the platform for 20 seconds. […]

[4] = system: mice; assay: Porsolt's Forced Swim Test; conditions: injected for 4 days in doses of 1 mg/kg; 15 minutes test
Protocol: Mice Behavior in Porsolt's Forced Swim Test. The test apparatus represented a plastic vessel filled with water up to height of 18 cm at 20-22° C. Mice were placed in water and for 15 minutes the duration of immobile hanging in water-so called behavioural […], which is considered to be a measure of depressively-like state, was registered. Automated computerized detection of motion with videosystem and Any-maze programm were used in test. […] This testifies the decreasing of time of a depressively-like state.

[5] = system: mice; assay: Tail suspension test; conditions: injected for 4 days in doses of 0.05 mg/kg; 6 minutes test
Protocol: Mice behavior in tail suspension test. Mice were suspended by tail with scotch tape on holder over horizontal surface at a height of about 40 cm, and for 6 minutes the total duration of complete immobility episodes which is considered to be a measure of depressively-like state was registered. Automated computerized detection of motion with videosystem and Any-maze programm were used in test. […] This testifies the decreasing of time of a depressively-like state.

Row | SMILES | prevention of Scopolamine influence on novel object recognition [1] | anxiolytic effect in elevated plus maze [2] | effect on memory impairment caused by Scopolamine, Morris water maze [3] | duration of immobile hanging of mice in water [4] | duration of mice complete immobility [5]
1 | CN1CCc2c(c3cc(S(=O)(=O)c4ccccc4)ccc3n2C)C1.Cl [1.1.1(4)•HCl, 2,5-dimethyl-8-(phenylsulfonyl)-2,3,4,5-tetrahydro-1H-γ-carboline hydrochloride] | could be prevented | well-marked anxiolytic effect | decreasing of memory impairment | decreased almost thrice | decreased significantly
2 | CN1CCc2[nH]c3ccc(S(=O)(=O)Nc4cccc(F)c4)cc3c2C1.Cl [1.2.1(3)•HCl, 2-methyl-2,3,4,5-tetrahydro-1H-γ-carboline-8-sulfonic acid 3-fluorophenyl amide hydrochloride] | could be prevented | well-marked anxiolytic effect | decreasing of memory impairment | decreased almost thrice | decreased significantly
